Laboratory results: patent publication US10792328B2, “Nanocomplexes for delivery of saporin” (Trustees of Tufts College, priority 2013, dated 2020)

Columns and labels:
MDA-MB-231 cancer cells = experiment: In vitro protein transfection (saporin delivery), cell viability by Alamar Blue assay; assay type: cell-based; details: MDA-MB-231 cells, under all four studied conditions
Method: Compositions 1-32 were tested for delivery of saporin into cells MDA-MB-231.
The two cells lines were purchased from ATCC (Manassas, Va.) and cultured in Dulbecco's Modified Eagle Medium (“DMEM”) supplemented with 10% Fetal Bovine Serum (“FBS”) and 1% penicillin/streptomycin at 37° C. in the presence of 5% CO2. For the protein transfection assay described below, cells were seeded in 96-well plates at a density of 10,000 cells per well a day prior to transfection.
To evaluate saporin delivery efficiency, lipid-like compound/saporin nanocomplexes prepared in Examples 19-54 were added to MDA-MB-231 cancer cells and incubated at 37° C. for 24 hours. The saporin concentration was 0.1 μg/250 μL in PBS. The same volume of PBS without any lipid-like compound or saporin was used as a control. The cell viability was determined by the Alamar Blue assay after 24 hours of incubation. All transfection studies were performed in quadruplicate.

4T1-12B breast tumors = experiment: In vivo cancer treatment, inhibition of tumor growth; details: BALB/c mice bearing 4T1-12B breast tumors, tail-vein injection every three days, 5.5 mg/kg lipid-like compound and 330 μg/kg saporin
Method: Composition 33 (i.e., 1-O16B/saporin) and Composition 34 (i.e., 1-O18B/saporin) were tested for in vivo inhibiting tumor growth following the procedure described below. More specifically, BALB/c mice bearing 4T1-12B breast tumors were developed from a 4T1-12B cell suspension in DMEM supplemented with 10% FBS at a concentration of 10^7 cells/ml. An aliquot (100 μl) of the cell suspension was injected into the mammary fat pad of 4-6 week-old female BALB/c mice. The mice were sorted into four groups randomly (n=7 for treatment group, n=5 for control groups) seven days after the injection. The mice were injected through tail-vein every three days. For the treatment group, each mouse was injected with 5.5 mg/kg of 1-O16B or 1-O18B and 330 μg/kg of saporin. Tumor volumes were measured every three days.
PBS without 1-O16B, 1-O18B, and saporin was also injected as a control. Comparative studies were also conducted using saporin in PBS without 1-O16B and 1-O18B.

| Molecule | saporin delivery efficiency (MDA-MB-231 cancer cells) | tumor size (4T1-12B breast tumors; Day 16) | tumor size (4T1-12B breast tumors; Day 22) |
| --- | --- | --- | --- |
| CCCCCCCCCCSSCCOC(=O)CCN(C)CCCN(C)CCC(=O)OCCSSCCCCCCCCCC [Composition 80-O14B] | high saporin delivery efficiency | – | – |
| CCCCCCCCCCCCCCCCCCOC(=O)CCN(C)CCCN(C)CCC(=O)OCCCCCCCCCCCCCCCCCC [Composition 80-O18] | high saporin delivery efficiency | – | – |
| CCCCCCCCCCCCSSCCOC(=O)CCN(C)CCCN(C)CCC(=O)OCCSSCCCCCCCCCCCC [Composition 80-O16B] | high saporin delivery efficiency | – | – |
| CCCCCCCCCCCCCCCCOC(=O)CCN(C)CCCN(C)CCC(=O)OCCCCCCCCCCCCCCCC [Composition 80-O16] | high saporin delivery efficiency | – | – |
| saporin | – | more than 120 mm^3 | more than 250 mm^3 |
| CCCCCCCCCCCCSSCCOC(=O)CCN(CCCN(CCO)CCO)CCC(=O)OCCSSCCCCCCCCCCCC [Composition 87-O16B] | high saporin delivery efficiency | – | – |
| CCCCCCCCCCCCCCSSCCOC(=O)CCN(C)CCCN(C)CCC(=O)OCCSSCCCCCCCCCCCCCC [Composition 80-O18B] | high saporin delivery efficiency | – | – |
